GI50 and TGI data for eight compounds are collected here from PubChem BioAssay (NCI).

Several values for one entry are separate records, joined by “and”; a condition that tells them apart may be missing. Equal entries are not always repeated.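 Assay format: 96-well plates, 48-hour exposure. GI50: concentration for 50% inhibition of growth. The concentration for full growth arrest is given as TGI.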

Among the test systems are KM12 colon; 786-0 renal; MCF7 breast; TK-10 renal; HOP-62 NSCLC; SN12C renal; NCI-H226 lung; T-47D breast; NCI-H23 lung; HL-60(TB) leukemia.
Common to all, as to assay: NCI tumour cell line growth inhibition, 48 h

`CN(CCCNC(=O)CCOCCOCCOCCNC(=O)Cc1ccc2ccc3cccc4ccc1c2c34)CCCNc1cc(-c2ccc3ccccc3c2)nc2ccccc12`: the GI50 was 0.47 µM with KM12 colon; 0.615 µM with 786-0 renal; 0.283 µM in the assay on MCF7 breast; 3.29 µM in the assay on TK-10 renal; 0.593 µM with HOP-62 NSCLC; 3.59 µM in the assay on SN12C renal. Further, the GI50 is 3.94 µM in the assay with NCI-H226 lung, 0.654 µM in the assay with T-47D breast and 0.767 µM in the assay with NCI-H23 lung. The TGI with KM12 colon is 1.04 µM; with 786-0 renal it was 1.11 µM; in the assay with MCF7 breast, 0.771 µM; in the assay on TK-10 renal it was 14.7 µM; with HOP-62 NSCLC it was 1.12 µM; in the assay on SN12C renal, 8.44 µM. The TGI amounted to 13.3 µM in the assay on NCI-H226 lung, 1.34 µM in the assay with T-47D breast and 2.1 µM in the assay with NCI-H23 lung.
Consider `CSc1ccc2c(c1)C(N1CCN(C)CC1)Cc1ccccc1S2` (stereo not drawn), for which the GI50 was 1.83 µM in the assay with KM12 colon; 1.77 µM with 786-0 renal; 1.79 µM with MCF7 breast; 1.84 µM in the assay with TK-10 renal; 1.8 µM in the assay on HOP-62 NSCLC; 2.81 µM with SN12C renal. The GI50 is 1.8 µM in the assay on NCI-H226 lung, 1.94 µM in the assay with HL-60(TB) leukemia, 2.19 µM in the assay with T-47D breast and 3.22 µM with NCI-H23 lung. Also, the TGI with KM12 colon was 7.49 µM and 3.55 µM; in the assay with 786-0 renal, 19.8 µM and 3.36 µM; with MCF7 breast, 7.22 µM and 3.58 µM; in the assay on TK-10 renal, 12.8 µM and 3.41 µM; in the assay on HOP-62 NSCLC it was 23.6 µM and 3.29 µM; in the assay with SN12C renal, 18.9 µM and 10.8 µM. For the same compound, the TGI in the assay on NCI-H226 lung is 24.9 µM and 3.94 µM; in the assay with HL-60(TB) leukemia it was 10.7 µM and 3.81 µM; with T-47D breast, 42.5 µM and 5.17 µM; in the assay on NCI-H23 lung, 28.8 µM and 11.8 µM.
In the case of `COC(=O)CSSCc1ccc([N+](=O)[O-])cc1`, the TGI in the assay on KM12 colon was determined as 38.9 µM; in the assay on 786-0 renal it was 65.3 µM; in the assay on MCF7 breast it was 34.3 µM; with TK-10 renal it was 55.7 µM; with HOP-62 NSCLC, 42.4 µM; with SN12C renal it was 34.1 µM. In addition, the TGI is 76.2 µM with HL-60(TB) leukemia, 51.7 µM with T-47D breast and over 100 µM in the assay on NCI-H23 lung.
As for `Cn1c(-c2c(N)n(CCCN3CCOCC3)c3nc(C#N)c(C#N)nc23)nc2ccccc21`, the GI50 is 12.4 µM with KM12 colon; 24.7 µM in the assay with 786-0 renal; 1.48 µM in the assay on MCF7 breast; 32.7 µM with TK-10 renal; 20.6 µM in the assay with HOP-62 NSCLC; 8.85 µM in the assay with SN12C renal. The GI50 in the assay on NCI-H226 lung was 27.8 µM; in the assay on HL-60(TB) leukemia, 0.704 µM; with T-47D breast it was 26.2 µM; in the assay on NCI-H23 lung it was 27 µM. In addition, the TGI was 31.4 µM in the assay on KM12 colon; over 69 µM with 786-0 renal; over 43.8 µM in the assay on MCF7 breast; 97.3 µM in the assay with TK-10 renal; 77.6 µM in the assay on HOP-62 NSCLC; over 80.2 µM in the assay with SN12C renal. Besides, the TGI with NCI-H226 lung was over 52.9 µM; in the assay on HL-60(TB) leukemia, 2.08 µM; with T-47D breast it was over 69.5 µM; with NCI-H23 lung it was over 81.9 µM.
Take `CC[C@H](C)[C@H](NC(=O)[C@H]1CCCCN1C)C(=O)N(C)[C@H](C[C@@H](OC(C)=O)c1nc(C(=O)N[C@@H](Cc2ccccc2)C[C@H](C)C(=O)O)cs1)C(C)C`: the GI50 with KM12 colon was 0.000269 µM and 0.00165 µM; with 786-0 renal it was 0.000943 µM and 0.00165 µM; with HOP-62 NSCLC, 0.000909 µM and 0.00165 µM; with SN12C renal, 0.003 µM and 0.00165 µM; in the assay with NCI-H226 lung, 0.0113 µM and < 0.00165 µM; in the assay with HL-60(TB) leukemia it was 0.000394 µM and < 0.00165 µM. Moreover, the GI50 in the assay with T-47D breast is over 16.5 µM; in the assay on NCI-H23 lung, 0.000887 µM and 0.00165 µM. The TGI in the assay on 786-0 renal was over 16.5 µM; in the assay with MCF7 breast it was over 16.5 µM; with HOP-62 NSCLC, over 16.5 µM; in the assay with SN12C renal, over 16.5 µM; with NCI-H226 lung, under 0.00165 µM; in the assay with HL-60(TB) leukemia it was 0.00267 µM and < 0.00165 µM. For the same compound, the TGI in the assay on T-47D breast and in the assay on NCI-H23 lung was over 16.5 µM each time.
In the case of `N=c1c2c(=N)n3c(nc2nc2n1-c1ccccc1Sc1ccccc1-2)sc1cc(Cl)ccc13`, the GI50 with KM12 colon was 2.34 µM; in the assay with 786-0 renal, 3.64 µM; in the assay on MCF7 breast it was 2.21 µM; in the assay on TK-10 renal, 3.64 µM; in the assay with HOP-62 NSCLC it was 5.87 µM; in the assay with SN12C renal it was 2.33 µM. The results for the GI50 with NCI-H226 lung, with T-47D breast and in the assay on NCI-H23 lung were 1.73 µM, 2.41 µM and 1.15 µM, respectively. Also, the TGI in the assay with KM12 colon is 12.6 µM; in the assay on 786-0 renal, over 100 µM; in the assay on MCF7 breast, over 100 µM; in the assay with TK-10 renal it was over 100 µM; in the assay on HOP-62 NSCLC it was 24.1 µM; in the assay with SN12C renal, 32.6 µM. The TGI in the assay with NCI-H226 lung was found to be 16.8 µM; in the assay on T-47D breast, 9.5 µM; with NCI-H23 lung, 7.02 µM.
In the case of `COc1cc2c3c(n(C)c(=O)c2cc1OC)-c1ccc(C#N)cc1C3=O`, the GI50 in the assay with KM12 colon was over 100 µM; in the assay on 786-0 renal it was over 100 µM; in the assay on MCF7 breast, 51.1 µM; in the assay with TK-10 renal, over 100 µM; with HOP-62 NSCLC, 74.1 µM; with SN12C renal, over 100 µM. The figures for the GI50 with NCI-H226 lung, in the assay on T-47D breast and in the assay with NCI-H23 lung were over 100 µM, 91.9 µM and over 100 µM, respectively. For the same compound, the TGI in the assay with KM12 colon, with 786-0 renal, with MCF7 breast, with TK-10 renal, in the assay with HOP-62 NSCLC and with SN12C renal was over 100 µM each time. The TGI in the assay on NCI-H226 lung, in the assay on T-47D breast and with NCI-H23 lung was over 100 µM in each case.
Regarding `COC(=O)C=Cc1ccc2nncnc2c1` (mixture of isomers), the TGI in the assay on KM12 colon was 99 µM; with 786-0 renal, over 100 µM; in the assay with MCF7 breast, over 100 µM; in the assay on TK-10 renal, over 100 µM; with HOP-62 NSCLC, over 100 µM; with SN12C renal, over 100 µM. Moreover, the TGI in the assay with NCI-H226 lung, in the assay on HL-60(TB) leukemia and in the assay on T-47D breast was over 100 µM in each case.
